molecular target: ΔF508-CFTR (Homo sapiens, UniProt P13569, DEL508-508); test: Fluorescence (YFP-H148Q/I152L) I− influx assay of ΔF508-CFTR potentiator activity in FRT cells; type: cell-based; parameters: expressed in transfected cells; conditions: phenylglycine containing compounds, 27° C. 24 h, forskolin 20 μM, read-out: Ka
Description: Clonal populations of Fischer rat thyroid (FRT) epithelial cells stably co-expressing human ΔF508-CFTR and the high-sensitivity halide-sensing green fluorescent analog YFP-H148Q/I152L (Galietta et al., A.S. (2001) FEBS Lett. 499, 220-224) were generated by liposome transfection and limiting dilution with Zeocin/G418 selection. More than 100 clones were evaluated for high fluorescence and ΔF508-CFTR plasma membrane targeting after growth at 27° C. for 24 hours. For screening, cells were cultured on plastic in Coon's modified F12 medium supplemented with 10% fetal bovine serum, 2 mM L-glutamine, 100 U/ml penicillin, and 100 μg/ml streptomycin, and plated on black 96-well microplates (Corning-Costar 3904) at 30,000 cells/well. For short-circuit measurements cells were cultured on Snapwell permeable supports (Corning-Costar) at 500,000 cells/insert. Human nasal epithelium cells from CF patients were cultured on Snapwell inserts and allowed to differentiate in a hormone-supplemented medium (Galietta et al., Am. J. Physiol., […]). Some measurements were done using stably transfected FRT cells expressing YFP-H148Q and wildtype- or G551D-CFTR (Galietta et al., (2001) J. Biol. Chem. 276, 19723-19728). Patch clamp experiments were done on ΔF508-CFTR-expressing FRT cells plated in 35-mm Petri dishes.
Screening was carried out using a Beckman integrated system containing a 3-meter robotic arm, CO2 incubator containing microplate carousel, plate-washer, liquid handling workstation, bar code reader, delidding station, plate sealer, and two FluoStar fluorescence plate readers (Galaxy, BMG Lab Technologies), each equipped with dual syringe pumps and HQ500/20X ([…]) excitation and HQ535/30M (535±15 nm) emission filters (Chroma). Software was written in VBA (Visual Basic for Applications) to compute baseline-subtracted fluorescence slopes (giving halide influx rates).
For assay of ΔF508-CFTR potentiator activity the incubator (27° C., 90% humidity, 5% CO2/95% air) was loaded with forty-to-sixty 96-well plates containing FRT cells. After an 18-24 hour incubation plates were washed 3 times with PBS (300 μl/wash) leaving 50 μl PBS. 10 μl of PBS containing 120 μM forskolin was added, and after 5 min test compounds (0.6 μl of 0.25 mM DMSO solution) were added to each well to give 2.5 μM final compound concentrations. After 15 min, 96-well plates were transferred to a plate reader for fluorescence assay. Each well was assayed individually for I^− influx by recording fluorescence continuously (200 ms per point) for 2 seconds (baseline) and then for 12 seconds after rapid (<1 s) addition of 160 μL of isosmolar PBS in which 137 mM Cl^− was replaced by I^−. I^− influx rates were computed from initial fluorescence versus time-curve slopes (determined by 3rd order polynomial regression) after normalization for total fluorescence (background subtracted initial fluorescence). All compound plates contained negative control (DMSO vehicle alone) and positive controls (genistein, 5 μM and 50 μM). Assay analysis indicated a Z′-factor of >0.7 (Zhang et al., J. Biomol. Screen 4:67-73 (1999)).
The high-throughput screen was designed to identify compounds that activated ΔF508-CFTR when expressed at the cell plasma membrane. FRT epithelial cells co-expressing ΔF508-CFTR and a high sensitivity yellow fluorescent protein-based halide indicator were incubated at 27° C. for 24 h to permit ΔF508-CFTR plasma membrane targeting (FIG. 1, panel A). After washing, forskolin (20 μM) and test compounds (2.5 μM) were added to individual wells of 96-well plates. The I^− influx assay was carried out ˜15 min later by measurement of the time course of decreasing YFP fluorescence after creation of an inwardly-directed I^− gradient. A high concentration of forskolin was used to identify ΔF508-CFTR potentiators that may interact directly with ΔF508-CFTR rather than alter cAMP concentration. […]

Sequence of ΔF508-CFTR (P13569 with tags, fused parts or gaps DEL508-508): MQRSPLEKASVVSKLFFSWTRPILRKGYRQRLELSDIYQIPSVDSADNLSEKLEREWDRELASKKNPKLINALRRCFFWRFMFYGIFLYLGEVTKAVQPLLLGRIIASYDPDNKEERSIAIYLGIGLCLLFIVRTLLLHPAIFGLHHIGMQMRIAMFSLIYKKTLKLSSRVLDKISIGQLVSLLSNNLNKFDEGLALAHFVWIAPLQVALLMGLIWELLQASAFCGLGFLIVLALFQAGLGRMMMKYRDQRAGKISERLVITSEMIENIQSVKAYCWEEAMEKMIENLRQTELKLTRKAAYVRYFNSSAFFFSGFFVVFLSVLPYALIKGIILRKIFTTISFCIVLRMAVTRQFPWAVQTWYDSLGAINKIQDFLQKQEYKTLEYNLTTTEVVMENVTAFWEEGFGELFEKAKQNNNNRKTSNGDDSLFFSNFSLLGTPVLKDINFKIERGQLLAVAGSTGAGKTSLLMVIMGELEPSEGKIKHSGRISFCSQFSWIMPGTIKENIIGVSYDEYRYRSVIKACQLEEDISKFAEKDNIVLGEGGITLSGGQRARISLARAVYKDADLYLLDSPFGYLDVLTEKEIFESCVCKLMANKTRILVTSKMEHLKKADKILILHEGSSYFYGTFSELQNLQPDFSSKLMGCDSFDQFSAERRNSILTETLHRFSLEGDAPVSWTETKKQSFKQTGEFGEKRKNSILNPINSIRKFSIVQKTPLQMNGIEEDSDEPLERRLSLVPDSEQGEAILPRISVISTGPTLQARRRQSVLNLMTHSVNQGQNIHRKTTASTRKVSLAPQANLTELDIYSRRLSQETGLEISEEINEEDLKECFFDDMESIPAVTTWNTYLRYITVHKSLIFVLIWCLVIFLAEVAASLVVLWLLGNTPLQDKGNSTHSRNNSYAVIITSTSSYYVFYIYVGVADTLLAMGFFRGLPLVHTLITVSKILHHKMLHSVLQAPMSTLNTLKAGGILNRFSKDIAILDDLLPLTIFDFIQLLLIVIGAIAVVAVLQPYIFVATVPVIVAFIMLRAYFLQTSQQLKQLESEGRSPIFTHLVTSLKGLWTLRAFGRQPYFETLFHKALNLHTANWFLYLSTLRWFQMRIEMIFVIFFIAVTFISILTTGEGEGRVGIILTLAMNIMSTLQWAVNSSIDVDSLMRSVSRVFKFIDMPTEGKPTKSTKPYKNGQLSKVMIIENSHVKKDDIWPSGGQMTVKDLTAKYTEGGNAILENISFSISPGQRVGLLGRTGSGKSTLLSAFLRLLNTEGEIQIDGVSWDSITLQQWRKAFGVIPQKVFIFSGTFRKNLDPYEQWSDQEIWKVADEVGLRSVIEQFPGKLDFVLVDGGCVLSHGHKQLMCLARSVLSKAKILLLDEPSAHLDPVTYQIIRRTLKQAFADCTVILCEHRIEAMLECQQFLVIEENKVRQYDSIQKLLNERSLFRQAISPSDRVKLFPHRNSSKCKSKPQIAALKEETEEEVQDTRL

Row | EC50 | SMILES
1 | 0.3 µM | CC(=O)NCC(=O)N(C)C(C(=O)Nc1ccc2c(c1)OCCO2)c1ccccc1 (centres unmarked) [Compound P-2, 2-[(2-Acetylamino-acetyl)-methyl-amino]-N-(2,3-dihydro-benzo[1,4]dioxin-6-yl)-2-phenyl-acetamide]
2 | 0.34 µM | COc1ccc(C(C(=O)Nc2ccc(C(C)C)cc2)N(C)C(=O)Cc2c[nH]c3ccccc23)cc1 (centres unmarked) [Compound P-3, 2-[(2-1H-Indol-3-yl-acetyl)-methyl-amino]-N-(4-isopropyl-phenyl)-2-(4-methoxy-phenyl)-acetamide]
3 | 0.7 µM | COc1ccc(NC(=O)C(c2ccccc2)N(C)C(=O)Cc2c[nH]c3ccccc23)cc1 (centres unmarked) [Compound P-5, 2-[(2-1H-Indol-3-yl-acetyl)-methyl-amino]-N-(4-methoxy-phenyl)-2-phenyl-acetamide]
4 | 0.88 µM | CC(C)c1ccc(NC(=O)C(NC(=O)Cc2c[nH]c3ccccc23)c2ccccc2)cc1 (centres unmarked) [Compound P-6, 2-(2-1H-Indol-3-yl-acetylamino)-N-(4-isopropyl-phenyl)-2-phenyl-acetamide]
5 | 1.33 µM | Cc1ccc(C(C(=O)Nc2ccc3c(c2)OCO3)N(C)C(=O)Cc2c[nH]c3ccccc23)cc1 (centres unmarked) [Compound P-7, N-Benzo[1,3]dioxol-5-yl-2-[(2-1H-indol-3-yl-acetyl)-methyl-amino]-2-p-tolyl-acetamide]
6 | 2.13 µM | COc1ccc(NC(=O)C(c2ccc(OC)cc2)N(C)C(=O)Cc2c[nH]c3ccccc23)cc1 (centres unmarked) [Compound P-8, 2-[(2-1H-Indol-3-yl-acetyl)-methyl-amino]-2,N-bis-(4-methoxy-phenyl)-acetamide]
7 | 2.33 µM | Cc1ccc(C(NC(=O)Cc2cc3ccccc3[nH]2)C(=O)Nc2ccc3c(c2)OCCO3)cc1 (centres unmarked) [Compound P-9, N-(2,3-Dihydro-benzo[1,4]dioxin-6-yl)-2-(2-1H-indol-2-yl-acetylamino)-2-p-tolyl-acetamide]
8 | 2.71 µM | COc1ccc(C(C(=O)Nc2ccc3c(c2)OCCO3)N(C)C(=O)Cc2c[nH]c3ccccc23)cc1 (centres unmarked) [Compound P-10, N-(2,3-Dihydro-benzo[1,4]dioxin-6-yl)-2-[(2-1H-indol-3-yl-acetyl)-methyl-amino]-2-(4-methoxy-phenyl)-acetamide]

same assay, conditions: sulfonamide containing compounds, 27° C. 24 h, forskolin 20 μM, read-out: Ka

Row | EC50 | SMILES
9 | 0.02 µM | CCN(c1ccccc1)S(=O)(=O)c1ccc2[nH]cc(C(=O)NC3CCCCCC3)c(=O)c2c1 [Compound S-2]
10 | 0.03 µM | CCN(c1ccccc1)S(=O)(=O)c1ccc2[nH]cc(C(=O)NC3CCCCC3)c(=O)c2c1 [Compound S-4]
11 | 0.11 µM | C=CCN(c1ccccc1)S(=O)(=O)c1ccc2[nH]cc(C(=O)NCCCC)c(=O)c2c1 [Compound S-6]
12 | 0.12 µM | C=CCN(c1ccccc1)S(=O)(=O)c1ccc2[nH]cc(C(=O)NC3CCCCCC3)c(=O)c2c1 [Compound S-7]
13 | 0.13 µM | Cc1ccc(C)c(N(C)S(=O)(=O)c2ccc3[nH]cc(C(=O)NCc4ccccn4)c(=O)c3c2)c1 [Compound S-8]
14 | 0.14 µM | CCN(c1ccccc1)S(=O)(=O)c1ccc2[nH]cc(C(=O)NCCCOC)c(=O)c2c1 [Compound S-9, 6-(Ethyl-phenyl-sulfamoyl)-4-oxo-1,4-dihydro-quinoline-3-carboxylic acid (3-methoxy-propyl)-amide]
15 | 0.16 µM | C=CCN(c1ccccc1)S(=O)(=O)c1ccc2[nH]cc(C(=O)NCc3ccccn3)c(=O)c2c1 [Compound S-11]
16 | 0.19 µM | C=CCN(c1ccccc1)S(=O)(=O)c1ccc2[nH]cc(C(=O)NCCCCCC)c(=O)c2c1 [Compound S-12]
17 | 0.2 µM | CCCCNC(=O)c1c[nH]c2ccc(S(=O)(=O)N(C)c3ccccc3C)cc2c1=O [Compound S-13]
18 | 0.2 µM | CCOc1ccccc1N(C)S(=O)(=O)c1ccc2[nH]cc(C(=O)NCC3CCCO3)c(=O)c2c1 (centres unmarked) [Compound S-14]
19 | 0.22 µM | CCCCCNC(=O)c1c[nH]c2ccc(S(=O)(=O)N(C)c3cccc(C)c3)cc2c1=O [Compound S-15]
20 | 0.24 µM | CCN(c1ccccc1)S(=O)(=O)c1ccc2[nH]cc(C(=O)NCCC3=CCCCC3)c(=O)c2c1 [Compound S-16]
21 | 0.24 µM | CCN(c1ccccc1)S(=O)(=O)c1ccc2[nH]cc(C(=O)NCC3CCCO3)c(=O)c2c1 (centres unmarked) [Compound S-17]
22 | 0.27 µM | CCc1ccccc1N(C)S(=O)(=O)c1ccc2[nH]cc(C(=O)NCc3ccccn3)c(=O)c2c1 [Compound S-18]
23 | 0.29 µM | COCCCNC(=O)c1c[nH]c2ccc(S(=O)(=O)N(C)c3cc(C)ccc3C)cc2c1=O [Compound S-19]
24 | 0.33 µM | CCCCNC(=O)c1c[nH]c2ccc(S(=O)(=O)N(C)c3c(C)cccc3C)cc2c1=O [Compound S-20, 6-[(2,6-Dimethyl-phenyl)-methyl-sulfamoyl]-4-oxo-1,4-dihydro-quinoline-3-carboxylic acid butylamide]
25 | 0.33 µM | CCN(c1ccc(F)cc1)S(=O)(=O)c1ccc2[nH]cc(C(=O)NC3CCCC3)c(=O)c2c1 [Compound S-21, 6-[Ethyl-(4-fluoro-phenyl)-sulfamoyl]-4-oxo-1,4-dihydro-quinoline-3-carboxylic acid cyclopentylamide]
26 | 0.36 µM | CCOC(CNC(=O)c1c[nH]c2ccc(S(=O)(=O)N(C)c3ccc(CC)cc3)cc2c1=O)OCC [Compound S-22]
27 | 0.37 µM | COc1ccc(Cl)cc1N(C)S(=O)(=O)c1ccc2[nH]cc(C(=O)NCCC3=CCCCC3)c(=O)c2c1 [Compound S-23]
28 | 0.38 µM | CCN(CC)S(=O)(=O)c1ccc2[nH]cc(C(=O)NCc3ccc4c(c3)OCO4)c(=O)c2c1 [Compound S-24]
29 | 0.44 µM | CCC(C)NC(=O)c1c[nH]c2ccc(S(=O)(=O)N(C)c3cccc(C)c3)cc2c1=O (centres unmarked) [Compound S-25, 6-(Methyl-m-tolyl-sulfamoyl)-4-oxo-1,4-dihydro-quinoline-3-carboxylic acid sec-butylamide]
30 | 0.44 µM | CCc1ccccc1N(C)S(=O)(=O)c1ccc2[nH]cc(C(=O)NC(C)CC)c(=O)c2c1 (centres unmarked) [Compound S-26]
31 | 0.46 µM | CCN(c1ccccc1)S(=O)(=O)c1ccc2[nH]cc(C(=O)NCc3ccco3)c(=O)c2c1 [Compound S-27]
32 | 0.48 µM | CCN(c1cccc(C)c1)S(=O)(=O)c1ccc2[nH]cc(C(=O)NCCCOC)c(=O)c2c1 [Compound S-28]
33 | 0.49 µM | Cc1cccc(N(C)S(=O)(=O)c2ccc3[nH]cc(C(=O)NCCC4=CCCCC4)c(=O)c3c2)c1 [Compound S-29, 6-(Methyl-m-tolyl-sulfamoyl)-4-oxo-1,4-dihydro-quinoline-3-carboxylic acid (2-cyclohex-1-enyl-ethyl)-amide]
34 | 0.54 µM | CCN(c1ccc(F)cc1)S(=O)(=O)c1ccc2[nH]cc(C(=O)NCC3CCCO3)c(=O)c2c1 (centres unmarked) [Compound S-30, 6-[Ethyl-(4-fluoro-phenyl)-sulfamoyl]-4-oxo-1,4-dihydro-quinoline-3-carboxylic acid (tetrahydro-furan-2-ylmethyl)-amide]
35 | 0.56 µM | CCCNC(=O)c1c[nH]c2ccc(S(=O)(=O)N(C)c3cccc(C)c3)cc2c1=O [Compound S-31]
36 | 0.57 µM | O=C(NC1CCCCC1)c1c[nH]c2ccc(S(=O)(=O)N3CCc4ccccc43)cc2c1=O [Compound S-32, 6-(2,3-Dihydro-indole-1-sulfonyl)-4-oxo-1,4-dihydro-quinoline-3-carboxylic acid cyclohexylamide]
37 | 0.59 µM | CCN(c1ccccc1)S(=O)(=O)c1ccc2[nH]cc(C(=O)NCc3ccc(C)cc3)c(=O)c2c1 [Compound S-33]
38 | 0.59 µM | CCOC(=O)C(NC(=O)c1c[nH]c2ccc(S(=O)(=O)N(C)C3CCCCC3)cc2c1=O)C(=O)OCC [Compound S-34]

— patent US7939558B2, “Compounds having activity in increasing ion transport by mutant-CFTR and uses thereof” (The Regents of the University of California, priority 2004, dated 2011)
